Assay results as given in PMC10515640, “Structure-Based Optimization of Covalent, Small-Molecule Stabilizers of the 14-3-3σ/ERα Protein–Protein Interaction from Nonselective Fragments” (Journal of the American Chemical Society, 2023).

Tests used:
14-3-3σ/ERα [1] = target: T1, 14-3-3σ/ERα (Homo sapiens, UniProt P03372+P31947); experiment: Fluorescence anisotropy compound titration, FAM-labeled ERα peptide; type: binding; conditions: 10 nM ERα-FAM labeled peptide, 1 µM 14-3-3σ, overnight incubation (24 h); read-out: EC50 value ERα (FA compound titration)
T1 construct: The 14-3-3 σ isoform (full-length for mass spectrometry and fluorescence anisotropy assays, ΔC for crystallography); made in house; host or cells: E. coli Rosetta 2(DE3)pLysS, pPROEX HTb vector
Description: (§1) Two orthogonal assays were developed for screening. For the primary assay, mass spectrometry (MS) was used to monitor the formation of the covalent bond between the compound and the native cysteine (Cys38 on 14-3-3σ) (Figure 1D). The assay was first performed in the absence of peptide to determine binding to 14-3-3σ only (apo screening, D1) and then in the presence of both 14-3-3σ and the peptide as an indication of how much the peptide stabilized compound binding (D2). […] As a secondary assay, fluorescence anisotropy (FA) was used. In this case, compounds were titrated to mixtures of 14-3-3σ and FAM-labeled peptides. […] Thus, the two assays are highly complementary; the MS assay reports on compound binding and the FA assay reports on peptide binding. […]
(§2) diluted in buffer (10 mM HEPES, pH 7.5, 150 mM NaCl, 0.1% Tween20, 1 mg/mL Bovine Serum Albumin (BSA; Sigma-Aldrich). Final DMSO in the assay was always 1%. Dilution series of 14-3-3 proteins or compounds were made in […]
(§3) Compound titrations were made by titrating the compound in a 2-fold dilution series (starting at 500 or 1000 µM) to a mix of fluorescein-labeled peptide (10 nM) and 14-3-3σ (concentration at approximately the EC20 to EC30 value of the protein-peptide complex; 1 µM for ERα and 5 µM for C-RAF). Using the ~EC25 value makes the assay sensitive for measuring an increase in PPI formation. Fluorescence anisotropy measurements were performed directly and after overnight incubation at room temperature. […]
(§4) Wells containing only FAM-peptide were used to set as G-factor at 35 mP. Data reported are at endpoint. EC50 and apparent Kd values were obtained from fitting the data with a four-parameter logistic model (4PL) in GraphPad Prism 7 for Windows. Data was obtained and averaged based on either three (compound titrations) or two (protein titrations) independent experiments.

14-3-3σ/C-RAF [2] = target: T2, 14-3-3σ/C-RAF (Homo sapiens, UniProt P31947); experiment: Mass spectrometry dose response, compound binding to 14-3-3σ in the presence of C-RAF phosphopeptide; conditions: 100 nM compound, 100 nM 14-3-3σ, C-RAF peptide 18 µM
T2 construct: The 14-3-3 σ isoform (full-length for mass spectrometry and fluorescence anisotropy assays, ΔC for crystallography); made in house; host or cells: E. coli Rosetta 2(DE3)pLysS, pPROEX HTb vector
T2 sequence (P31947 1-248): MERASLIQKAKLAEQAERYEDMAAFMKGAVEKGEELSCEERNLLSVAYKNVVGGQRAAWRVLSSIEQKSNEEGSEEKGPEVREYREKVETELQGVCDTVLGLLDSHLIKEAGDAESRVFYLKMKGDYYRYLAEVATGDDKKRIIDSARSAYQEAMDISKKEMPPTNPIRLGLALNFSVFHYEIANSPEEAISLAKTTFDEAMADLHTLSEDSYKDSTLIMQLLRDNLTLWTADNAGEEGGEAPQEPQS
Description: as §1
(§5) Mass spectrometry dose response assays were performed on a Waters Acquity UPLC/ Xevo G2-XS Q-Tof mass spectrometer. A Waters UPLC Protein BEH-C4 Column (300 Å, 1.7 μm, 2.1 mm x 50 mm) was used to desalt the samples prior to application on the mass spectrometer. For 19-point MS dose responses, 50 mM compound stocks in DMSO were serially diluted in 3-fold increment in a master plate, then 1000 nl of the compounds were transferred in the assay plates. Master mixes containing 100 nM full-length wild type 14-3-3σ in the absence or presence of […]
(§6) Assay buffer was TRIS (10 mM, pH 8.0) and final volume per well was 50 μl, with final top concentration of compounds dose response series at 1 mM. The reaction mixtures were incubated for 1h at rt before subjected to MS. Four measurements (1h, 8h, 16h, 24h) were performed for time-course experiments. The injection volume for each sample was 6 μl. 24 μl of sample were needed for the time-course experiments, so the total volume in the assay plate was adjusted to 50 μl, to account for the dead volume in the injections. Data collection and automated processing followed a custom workflow, as previously described.1 z Plots were created using GraphPad Prism with the log(agonist) vs. response (variable slope, four parameters) fitting model. […]

14-3-3σ/C-RAF [3] = target: T2, 14-3-3σ/C-RAF; experiment: Fluorescence anisotropy compound titration, FAM-labeled C-RAF peptide; type: binding; conditions: 10 nM C-RAF-FAM labeled peptide, 5 µM 14-3-3σ, overnight incubation; read-out: EC50 value C-RAF (FA compound titration)
Description: as §1, §2, §3, §4

14-3-3σ = target: T3, 14-3-3σ (Homo sapiens, UniProt P31947); experiment: Mass spectrometry dose response, compound binding to 14-3-3σ in the absence of peptide (apo); conditions: 100 nM compound, 100 nM 14-3-3σ
T3 construct: The 14-3-3 σ isoform (full-length for mass spectrometry and fluorescence anisotropy assays, ΔC for crystallography); made in house; host or cells: E. coli Rosetta 2(DE3)pLysS, pPROEX HTb vector
T3 sequence (P31947 1-248): T2 sequence (P31947 1-248)
Description: as §1, §5, §6

14-3-3σ/ERα [4] = target: T1, 14-3-3σ/ERα; experiment: Mass spectrometry dose response, compound binding to 14-3-3σ in the presence of ERα phosphopeptide; conditions: 100 nM compound, 100 nM 14-3-3σ, ERα-peptide 2 µM
Description: as §1, §5, §6

SMILES | EC50 (14-3-3σ/ERα [1]) [µM] | Percentage (%) bound of compound to 14-3-3σ, CRAF 1h (14-3-3σ/C-RAF [2]) [%] | Percentage (%) bound of compound to 14-3-3σ, CRAF 8h (14-3-3σ/C-RAF [2]) [%] | Percentage (%) bound of compound to 14-3-3σ, CRAF 24h (14-3-3σ/C-RAF [2]; 24h) [%] | Percentage (%) bound of compound to 14-3-3σ, CRAF 24h (14-3-3σ/C-RAF [2]; head prints 24h) [%] | EC50 (14-3-3σ/C-RAF [3]) [µM] | Percentage (%) bound of compound to 14-3-3σ, APO 1h (14-3-3σ) [%] | Percentage (%) bound of compound to 14-3-3σ, APO 8h (14-3-3σ) [%] | Percentage (%) bound of compound to 14-3-3σ, APO 16h (14-3-3σ) [%] | Percentage (%) bound of compound to 14-3-3σ, APO 24h (14-3-3σ) [%] | Percentage (%) bound of compound to 14-3-3σ, ERα 1h (14-3-3σ/ERα [4]) [%] | Percentage (%) bound of compound to 14-3-3σ, ERα 8h (14-3-3σ/ERα [4]) [%] | Percentage (%) bound of compound to 14-3-3σ, ERα 16h (14-3-3σ/ERα [4]) [%] | Percentage (%) bound of compound to 14-3-3σ, ERα 24h (14-3-3σ/ERα [4]) [%]
O=C(CCl)NCC1CCN(C(=O)C2(Oc3ccc(Cl)cc3)CCCC2)CC1 [compound 117] | 15 ± 2 | 10.7 | 21.4 | 47.3 | 33.7 | 32 ± 8 | 0 | 0.3 | 0.8 | 1.1 | 5.6 | 15.7 | 34.4 | 63.7
O=C(CCl)NCC1CCN(C(=O)C2(Nc3ccc(Cl)cc3)CCC(F)(F)CC2)CC1 [compound 125] | 12 ± 2 | 4.9 | 7.6 | 23.2 | 12.4 | > 150 | 0.4 | 1.1 | 2.1 | 6.2 | 13.8 | 30.0 | 64.6 | 87.5
NC1CCC(Oc2ccc(Cl)cc2)(C(=O)N2CCC(CNC(=O)CCl)CC2)CC1 (stereo not shown) [compound 135] | 37 ± 5 | 0.5 | 1.8 | 3.4 | 2.6 | > 150 | 0.8 | 0.9 | 1.8 | 2.4 | 11.3 | 22.2 | 42.2 | 64.2
O=C(CCl)N1CCC2(CC1)CC(CNC(=O)C1(Nc3ccc(Cl)cc3)CCOCC1)C2 [compound 175] | 15 ± 2 | 2.4 | 6.0 | 17.4 | 9.6 | > 150 | 1.9 | 5.4 | 10.6 | 16.7 | 21.7 | 39.4 | 64.1 | 87.3
O=C(CCl)NCC1CCN(C(=O)C2(Oc3ccc(Cl)cc3)CCCCC2)CC1 [compound 122] | 55 ± 14 | 1.5 | 4.8 | 17.5 | 8.9 | > 150 | 0 | 0 | 0.8 | 1.3 | 1.6 | 7.1 | 11.5 | 32.3
CC(C)(Oc1ccc(Cl)cc1)C(=O)N1CCC(CNC(=O)CCl)CC1 [compound 27] | 19 ± 1 | 4.1 | 10.6 | 28.3 | 19.2 | 16 ± 4 | 0.0 | 1.0 | 1.4 | 2.0 | 1.4 | 6.4 | 14.6 | 30.6
O=C(CCl)NCC1CC2(CCN(C(=O)C3(Nc4ccc(Cl)cc4)CCOCC3)CC2)C1 [compound 174] | 97 ± 9 | 0.6 | 0.7 | 2.1 | 1.6 | > 150 | 1.0 | 1.0 | 1.5 | 3.0 | 5.0 | 5.0 | 8.4 | 41.4
O=C(CCl)NCC1CCN(C(=O)C2(Nc3ccccc3)CCCCC2)CC1 [compound 121] | > 150 | 0 | 0 | 0 | 0 |  | 0 | 0 | 0 | 0 | 0 | 0 | 0 | 0
O=C(CCl)NCCC1CCN(C(=O)C2(Nc3ccc(Cl)cc3)CCOCC2)CC1 [compound 148] | 92 ± 8 | 0 | 0 | 0 | 0 |  | 0 | 0 | 0 | 0 | 0 | 0 | 1.0 | 1.1
